The values that follow are results of earlier work, collected in patent publication US5276058A, “3,4-dihydroxychalcone derivatives” (Nippon Hypox Laboratories Incorporated, priority 1993, dated 1994).

For series [1] the following is noted: JP,A 63-297847; cited from earlier work.
The conditions of series [2]: JP,A 61-76433; cited from earlier work.

On to `O=C(/C=C/c1ccc(O)c(O)c1)c1cccc(O)c1O` [2',3',3,4-tetrahydroxychalcone], for which the anti-inflammatory activity result in series [1] is listed as “extensive anti-inflammatory activity”.
Turning to `COc1ccc(C(=O)C=Cc2ccc(O)c(O)c2)c(OC)c1OC` [3-(3,4-dihydroxyphenyl)-1-(2,3,4-trimethoxyphenyl)-2-propen-1-one], in series [2], the antiallergic activity entry is “antiallergic activity”.
